Data: US9205139B2, “Immunomodulatory methods and systems for treatment and/or prevention of aneurysms” (priority 2010, dated 2015)
Peptide text beside a SMILES is read from it.

Tests used:
[1] = Circulating cholesterol and body weight of immunized mice; format: in vivo; settings: n = 10; mean±Std
Text: Immunization protocols Male apoE (−/−) mice (Jackson Laboratories) were housed in an animal facility accredited by the American Association of Accreditation of Laboratory Animal Care and kept on a 12-hour day/night cycle with unrestricted access to water and food. The Institutional Animal Care and Use Committee of Cedars-Sinai Medical Center approved the experimental protocols. […] Mice, maintained on normal chow diet, received subcutaneous primary immunization in the dorsal area between scapulas at 6-7 weeks of age, followed by a booster at 9 and 12 weeks of age. One week after last booster, diet was switched to high cholesterol chow (TD 88137, Harlan-Teklad) and continued until euthanasia at the age of 25 weeks. Separate groups of mice receiving PBS or cBSA/alum at the same immunization time-points served as control. Some mice were sacrificed at 8 or 13 weeks of age to assess immune response against p210.
The vaccine preparation consisted of the p210 peptide (Euro-Diagnostica AB, Sweden) conjugated to cationic bovine serum albumin (cBSA) as carrier using a method described previously^3;4. Alum was used as adjuvant and mixed with peptide/cBSA conjugated with 1:1 ratio in volume. Peptide conjugation was performed on the day of immunization and freshly mixed with alum just prior to each immunization. […]

atherosclerosis = settings: WO 02/080954, Table B; cited from earlier work

Compound	Body weight [1]	percentage reduction of atherosclerosis (atherosclerosis) [%]
CC(C)C[C@H](NC(=O)[C@H](CC(=O)O)NC(=O)[C@H](Cc1ccccc1)NC(=O)[C@H](CO)NC(=O)[C@H](CCC(N)=O)NC(=O)[C@H](CCCCN)NC(=O)[C@@H](NC(=O)[C@@H](NC(=O)[C@@H](N)CCCCN)[C@@H](C)O)[C@@H](C)O)C(=O)N[C@@H](CO)C(=O)N[C@H](C(=O)N[C@@H](CCCCN)C(=O)N[C@@H](C)C(=O)N[C@@H](CCC(N)=O)C(=O)N[C@@H](Cc1ccc(O)cc1)C(=O)N[C@@H](CCCCN)C(=O)N[C@@H](CCCCN)C(=O)N[C@@H](CC(N)=O)C(=O)N[C@@H](CCCCN)C(=O)N[C@@H](Cc1c[nH]cn1)C(=O)O)C(C)C [p210, KTTKQ SFDLS VKAQY KKNKH] (H-KTTKQSFDLSVKAQYKKNKH-OH)	without affecting	–
EEEML ENVSL VCPKD ATRFK [p1]	–	31
HTFLI YITEL LKKLQ STTVM (HTFLIYITELLKKLQSTTVM) [p301]	–	55.2
IEIGL EGKGF EPTLE ALFGK (IEIGLEGKGFEPTLEALFGK) [p45]	–	47.4
